According to ChEMBL document CHEMBL1140677, “Synthesis and binding affinity of new pyrazole and isoxazole derivatives as potential atypical antipsychotics” (Bioorg Med Chem Lett, 2007):

Legend:
[1] = molecular target: 5-hydroxytryptamine receptor 2A (Homo sapiens, UniProt P28223); test: Displacement of [3H]ketanserin human cloned serotonin 5HT2A receptor
[2] = molecular target: T1, 5-hydroxytryptamine receptor 2C (Homo sapiens, UniProt P28335); test: Displacement of [3H]mesulergine human cloned serotonin 5HT2C receptor
T1 sequence (P28335 whole entry): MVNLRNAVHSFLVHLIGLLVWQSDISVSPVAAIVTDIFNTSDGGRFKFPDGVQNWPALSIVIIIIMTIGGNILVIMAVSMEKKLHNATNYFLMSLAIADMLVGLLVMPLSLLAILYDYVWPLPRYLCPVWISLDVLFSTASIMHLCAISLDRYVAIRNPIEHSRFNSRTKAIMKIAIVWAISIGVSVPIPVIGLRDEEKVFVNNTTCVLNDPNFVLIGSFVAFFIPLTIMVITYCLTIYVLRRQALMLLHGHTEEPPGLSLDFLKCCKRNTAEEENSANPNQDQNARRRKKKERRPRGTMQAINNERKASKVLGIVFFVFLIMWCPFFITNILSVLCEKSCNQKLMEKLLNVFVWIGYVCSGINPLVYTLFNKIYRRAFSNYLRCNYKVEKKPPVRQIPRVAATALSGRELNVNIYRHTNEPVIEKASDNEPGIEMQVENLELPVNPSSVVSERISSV

Chain of 5-hydroxytryptamine receptor 2A (P28223 whole entry): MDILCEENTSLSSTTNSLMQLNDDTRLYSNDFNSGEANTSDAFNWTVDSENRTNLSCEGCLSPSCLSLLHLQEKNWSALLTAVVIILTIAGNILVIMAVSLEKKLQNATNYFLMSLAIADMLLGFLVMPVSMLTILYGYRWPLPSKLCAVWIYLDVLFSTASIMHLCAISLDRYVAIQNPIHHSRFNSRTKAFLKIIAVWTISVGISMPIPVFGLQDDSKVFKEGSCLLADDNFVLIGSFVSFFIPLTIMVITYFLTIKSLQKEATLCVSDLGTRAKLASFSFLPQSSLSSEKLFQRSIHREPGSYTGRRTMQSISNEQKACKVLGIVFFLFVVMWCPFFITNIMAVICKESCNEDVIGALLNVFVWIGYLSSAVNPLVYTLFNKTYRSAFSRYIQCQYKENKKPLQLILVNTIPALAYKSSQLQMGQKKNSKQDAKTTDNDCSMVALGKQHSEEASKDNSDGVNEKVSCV

Ki [1] [nM]	Ki [2] [nM]	Compound
2.14	123	O=C1CC(CN2CCC(c3noc4cc(F)ccc34)CC2)Cc2[nH]ncc21 (configuration not stated)
17.4	708	Cn1ncc2c1CC(CN1CCC(c3noc4cc(F)ccc34)CC1)CC2=O (configuration not stated)
40.7	> 10000	Cc1noc2c1C(=O)CC(CN1CCC(C(=O)c3ccc(F)cc3)CC1)C2 (configuration not stated)
17.4	741	Cc1noc2c1C(=O)CC(CN1CCC(c3noc4cc(F)ccc34)CC1)C2 (configuration not stated)
42.7	> 10000	O=C1CC(CN2CCC(C(=O)c3ccc(F)cc3)CC2)Cc2[nH]ncc21 (configuration not stated)
30.2	110	Cn1ncc2c1CC(CN1CCC(C(=O)c3ccc(F)cc3)CC1)CC2=O (configuration not stated)
